pIC50: −log10 of the molar value.
Molecular target: T1, human JAK2 (Homo sapiens, UniProt O60674)
T1 construct: JAK2 (a.a. 828-1132); His tag (N); made in house; host or cells: insect cells (baculovirus)
Assay: In vitro JAK kinase assay (HTRF, phosphorylation of biotinylated peptide)
Type: biochemical
Settings: catalytic domain a.a. 828-1132, 30 μM ATP, 500 nM peptide, room temperature 1 hr; read-out: JAK-2 IC50
How it was run: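 IC50 from HTRF detection (Eu-Py20 antibody, SA-APC) of biotinylated-peptide phosphorylation (500 nM), run 1 h at RT. Enzyme: N-His human JAK2 kinase domain a.a. 828-1132 from insect cells; ATP 30 μM; buffer 50 mM Tris pH 7.8 with NaCl, DTT, BSA.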

T1 sequence (O60674 828-1132): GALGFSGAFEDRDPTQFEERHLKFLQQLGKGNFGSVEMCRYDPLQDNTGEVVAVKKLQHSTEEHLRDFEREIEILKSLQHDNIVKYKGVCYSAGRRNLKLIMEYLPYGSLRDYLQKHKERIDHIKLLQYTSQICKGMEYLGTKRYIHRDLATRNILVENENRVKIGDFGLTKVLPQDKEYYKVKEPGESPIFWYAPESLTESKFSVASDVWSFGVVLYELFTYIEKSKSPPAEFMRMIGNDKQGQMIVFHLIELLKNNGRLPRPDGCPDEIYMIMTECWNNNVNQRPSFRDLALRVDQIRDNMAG

pIC50, > 7.00:
CCS(=O)(=O)N1CC(CC#N)(n2cc(-c3ccnc(Nc4ccc(C(=O)N5C6CC7CC5CC(C6)O7)cc4)n3)cn2)C1 [Example 274, 1-(ethylsulfonyl)-3-(4-(2-(4-(2-oxa-6-azatricyclo[3.3.1.1(3,7)]dec-6-ylcarbonyl)phenyl)aminopyrimidin-4-yl)-1H-pyrazol-1-yl)azetidin-3-ylacetonitrile]
CCS(=O)(=O)N1CC(CC#N)(n2cc(-c3ccnc(Nc4ccc(C(=O)N5CCC(OC)CC5)cc4)n3)cn2)C1 [Example 275, (1-(ethylsulfonyl)-3-4-(2-(4-((4-methoxypiperidin-1-yl)carbonyl)phenylamino)pyrimidin-4-yl)-1H-pyrazol-1-ylazetidin-3-yl)acetonitrile]
CCS(=O)(=O)N1CC(CC#N)(n2cc(-c3ccnc(Nc4ccc(C(=O)N5CC[C@@H](C#N)C5)cc4)n3)cn2)C1 [Example 276, (R)-1-(4-(4-(1-(3-(cyanomethyl)-1-(ethylsulfonyl)azetidin-3-yl)-1H-pyrazol-4-yl)pyrimidin-2-ylamino)benzoyl)pyrrolidine-3-carbonitrile]
CCS(=O)(=O)N1CC(CC#N)(n2cc(-c3ccnc(Nc4ccc(C(=O)N5CC[C@H](OC)C5)cc4)n3)cn2)C1 [Example 277, (S)-2-(1-(ethylsulfonyl)-3-(4-(2-(4-(3-methoxypyrrolidine-1-carbonyl)phenylamino)pyrimidin-4-yl)-1H-pyrazol-1-yl)azetidin-3-yl)acetonitrile]
CCS(=O)(=O)N1CC(CC#N)(n2cc(-c3ccnc(Nc4ccc(C(=O)N5CC[C@@H](O)C5)cc4)n3)cn2)C1 [Example 278, (R)-2-(1-(ethylsulfonyl)-3-(4-(2-(4-(3-hydroxypyrrolidine-1-carbonyl)phenylamino)pyrimidin-4-yl)-1H-pyrazol-1-yl)azetidin-3-yl)acetonitrile]
CCS(=O)(=O)N1CC(CC#N)(n2cc(-c3ccnc(Nc4ccc(C(=O)N5CCN(C)CC5)cc4)n3)cn2)C1 [Example 279, 2-(1-(ethylsulfonyl)-3-(4-(2-(4-(4-methylpiperazine-1-carbonyl)phenylamino)pyrimidin-4-yl)-1H-pyrazol-1-yl)azetidin-3-yl)acetonitrile]
CCS(=O)(=O)N1CC(CC#N)(n2cc(-c3ccnc(Nc4ccc(C(=O)N5CC[C@@H](NC(C)=O)C5)cc4)n3)cn2)C1 [Example 280, (R)—N-(1-(4-(4-(1-(3-(cyanomethyl)-1-(ethylsulfonyl)azetidin-3-yl)-1H-pyrazol-4-yl)pyrimidin-2-ylamino)benzoyl)pyrrolidin-3-yl)acetamide]
CCS(=O)(=O)N1CC(CC#N)(n2cc(-c3ccnc(Nc4ccc(C(=O)N5CCN(C(C)=O)CC5)cc4)n3)cn2)C1 [Example 281, 2-(3-(4-(2-(4-(4-acetylpiperazine-1-carbonyl)phenylamino)pyrimidin-4-yl)-1H-pyrazol-1-yl)-1-(ethylsulfonyl)azetidin-3-yl)acetonitrile]
CCS(=O)(=O)N1CC(CC#N)(n2cc(-c3ccnc(Nc4ccc(C(=O)N5CC[C@H](F)C5)cc4)n3)cn2)C1 [Example 283, (S)-2-(1-(ethylsulfonyl)-3-(4-(2-(4-(3-fluoropyrrolidine-1-carbonyl)phenylamino)pyrimidin-4-yl)-1H-pyrazol-1-yl)azetidin-3-yl)acetonitrile]
CCOC(=O)N1CCC(NC(=O)c2ccc(Nc3nccc(-c4cnn(C5(CC#N)CN(S(=O)(=O)CC)C5)c4)n3)cc2)CC1 [Example 284, Ethyl 4-(4-(4-(1-(3-(cyanomethyl)-1-(ethylsulfonyl)azetidin-3-yl)-1H-pyrazol-4-yl)pyrimidin-2-ylamino)benzamido)piperidine-1-carboxylate]
N#CCC1(n2cc(-c3ccnc(Nc4ccc(C(=O)N5CC[C@@H](C#N)C5)cc4)n3)cn2)CC(C#N)C1 (stereo partly drawn) [Example 297, (R)-1-(4-(4-(1-(3-cyano-1-(cyanomethyl)cyclobutyl)-1H-pyrazol-4-yl)pyrimidin-2-ylamino)benzoyl)pyrrolidine-3-carbonitrile]
CC(=O)N[C@@H]1CCN(C(=O)c2ccc(Nc3nccc(-c4cnn(C5(CC#N)CC(C#N)C5)c4)n3)cc2)C1 (stereo partly drawn) [Example 299, (R)—N-(1-(4-(4-(1-(3-cyano-1-(cyanomethyl)cyclobutyl)-1H-pyrazol-4-yl)pyrimidin-2-ylamino)benzoyl)pyrrolidin-3-yl)acetamide]
N#CCC1(n2cc(-c3ccnc(Nc4ccc(C(=O)N5[C@@H]6CC[C@H]5C[C@@H](O)C6)cc4)n3)cn2)CC(C#N)C1 (stereo partly drawn) [Example 300, 3-(cyanomethyl)-3-(4-(2-(4-((3-endo)-3-hydroxy-8-azabicyclo[3.2.1]octane-8-carbonyl)phenylamino)pyrimidin-4-yl)-1H-pyrazol-1-yl)cyclobutanecarbonitrile]

From patent US8309718B2, “4-pyrazolyl-N-arylpyrimidin-2-amines and 4-pyrazolyl-N-heteroarylpyrimidin-2-amines as janus kinase inhibitors” (Incyte Corporation, priority 2007, dated 2012)
